# Earlier results as cited in patent publication US9814693B2 (priority 2012, dated 2017).
# Where a name gives a salt, the structure may show the parent alone.
# How the values were obtained:
# [1] = tested on: CML; conditions: first-line
# [2] = compared with all the diepoxyhexitols
# [3] = tested on: Chinese hamster cell cultures; conditions: low doses, in vitro
# [4] = tested on: S180 ascites tumors; conditions: S180 ascites tumor
# [5] = tested on: rabbits; conditions: i.v. 2.5 and 0.25 mg/kg every second day for 30 or 70 days
# [6] = tested on: NK/Ly tumor; conditions: NK/Ly tumor-bearing mice
# [7] = tested on: erythrocytes; conditions: fresh whole dog blood, 37° C., within 2 hours
# [8] = tested on: rats
# [9] = tested on: Ehrlich ascites tumor
# [10] = tested on: mice; conditions: after the start of treatment (time not given); these and previous studies
# [11] = tested on: rabbits
# [12] = normal brain and intracerebral tumor tissue
# [13] = tested on: beagle dogs
# [14] = tested on: Barle's L cells; conditions: percentage of control cloning efficiency
# [15] = tested on: Ehrlich ascites tumor cells
# [16] = tested on: mice
# [17] = solution in distilled water
# [18] = tested on: HeLa cell cultures
# [19] = tested on: L1210 leukemia; conditions: mice, early form of L1210 leukemia, various doses
# [20] = tested on: intracerebral murine ependymoblastomas; conditions: intracerebral tumors
# [21] = tested on: erythrocytes
# [22] = in vivo
# [23] = not given; remark: listed apart in the source
# [24] = tested on: Harding-Passey melanoma
compound,measurement,setting,value
"Cc1ccc(NC(=O)c2ccc(CN3CCN(C)CC3)cc2)cc1Nc1nccc(-c2cccnc2)n1 [Gleevec, imatinib mesylate]",estimated overall survival rate,"[1]; CML patients, following two years",91%
same,patients with cytogenetic response,[1],up to 60%
same,patients free of disease worsening,[1]; following two years,~90%
"OC(C1CO1)C(O)C1CO1 (centres unmarked) [dianhydrogalactitol, 1,2:5,6-Dianhydrogalactitol]",chemical stability,[2],most chemically stable
same,chromosome aberrations,[3],induced characteristic chromosome aberrations
same,animals recovered after treatment,[4],Fifty
same,most marked alterations,[5],cell population reductions (especially of the myeloid elements) in the bone marrow
same,increase in lifespan,[6],200%
same,incubated dose bound to erythrocytes,[7],37.7%
same,changes in the parenchymal organs,"[8]; single 10, 5 or 2.5 mg/kg dose, 1 hour to 21 days",No changes
same,LD50,[8]; single dose,10 mg/kg
same,animals recovered after treatment,[9],Fifty
same,tumor weight inhibition,[9]; 0.75 mg/kg (one-sixtieth of the LD50),68%
same,drug accumulation of five cytostatic hexitol derivatives,[10],0%
same,effect on platelet counts,"[11]; repeated injections of smaller doses (17×2.5, 17×0.25 mg/kg i.v.)",no changes in platelet counts
same,effect on platelets,[11]; single 14.0 mg/kg i.v.,persistent thromobocytopenia
same,decrease in the granulocyte count,"[11]; single 14.0 mg/kg i.v., disappeared in 30 days",50%
same,LD50,[11]; single i.v. dose,14.0 mg/kg
same,blood-brain barrier passage,[12],rapidly crosses the blood-brain barrier
same,"death, time after injection","[13]; dog 1, 6 mg/kg i.v. on day 8 after 3 mg/kg on day 1",7 days
same,"death, time after administration","[13]; dog 2, 6 mg/kg i.v.",12 days
same,doses at which toxicity occurs,"[13]; dog, i.v.",greater than 3 mg/kg
same,findings associated with death,[13]; dogs given 6 mg/kg i.v.,"bone marrow hypoplasia, leucopenia, and thrombocytopenia"
same,concentration giving 50 percent survival (cloning efficiency),[14],4 µg/mL
same,dose dependence of distribution and elimination,"3 and 6 mg/kg, one dog",dose-independent
same,mean Cl,"dogs, i.v. 3 and 6 mg/kg",23.4 mL/min/kg
same,mean value of V,"dogs, i.v. 3 and 6 mg/kg",0.462 L/kg
same,mean value of VDss,"dogs, i.v. 3 and 6 mg/kg",0.779 L/kg
same,"mean t1,2,β","dogs, i.v. 3 and 6 mg/kg, intact drug in plasma",26.6 min
same,"multinucleated cells, compared with mannitol mustard or dibromodulcitol",[15]; Ehrlich ascites tumor cells,more frequently
same,time of earliest detectable ultrastructural effects,"[15]; larger dose (7.5 mg/kg i.p.), after administration",3 h
same,time at which ultrastructural effect could be detected,"[15]; smaller doses (3.7 mg/kg i.p.), after treatment",72 to 96 h
same,"atrophy of the spleen and lymph nodes, compared with dibromodulcitol",[16]; acute toxicity,more marked
same,"time of death, compared with dibromodulcitol",[16]; acute toxicity,died earlier
same,symptoms at the LD50,[16]; animals treated with the LD50 (15 mg/kg),gastrointestinal symptoms (including weight loss) were dominant
same,LD80,"[16]; mice, single dose",18 mg/kg
same,LD50,"[16]; mice, single dose, survivors observed 21 days",15 mg/kg
same,local effect of the solution,[17],"slight, locally irritating effect"
same,cytomorphologic effect,[18]; 100-μg dose,complete cellular disintegration
same,prolongation of lifespan,[19],50%-200%
same,antitumor activity,[20],activity
same,initially present drug remaining with the erythrocytes,[21]; after dialysis for 14 hours,36%
same,initially erythrocyte-bound drug lost to the dialysis medium,"[21]; within 2 hours, pH 7.4, 37° C.",50%
O[C@H]([C@H](O)[C@@H](O)CBr)[C@H](O)CBr [dibromodulcitol],absorption by the oral route,[22],rapid and fairly complete
same,increase in lifespan,[6],90%
same,solubility in water,[23],hardly soluble in water
same,effect on the tumor,[9]; doses equitoxic to 0.75 mg/kg dianhydrogalactitol,no effects
same,drug accumulation of five cytostatic hexitol derivatives,[10],62%
same,relative effectiveness,[24],more effective than dianhydrogalactitol
same,concentration giving 50 percent survival (cloning efficiency),[14],75 µg/mL
same,mitotic index,"[18]; 10-μg dose, untreated control 2.9%",0
same,prolongation of lifespan,[19],40%
CS(=O)(=O)OC[C@@H](O)[C@@H](O)[C@H](O)[C@H](O)COS(C)(=O)=O [mannitol myleran],drug accumulation of five cytostatic hexitol derivatives,[10],45%
